# Source: ChEMBL document CHEMBL1128060, “Deoxypseudophrynaminol: a novel antibacterial alkaloid” (1995)
# The source made the active and inactive calls. The calls are words filed in the database; no cut-off is given here.
# Columns and labels:
# [1] = system: Enterococcus faecium; test: Minimum inhibitory concentration against growth of patient isolated vancomycin-resistant Enterococcus faecium (VRE1); assay type: functional
# [2] = system: Staphylococcus aureus; test: Minimum inhibitory concentration against growth of patient isolated methicillin-resistant Staphylococcus aureus (MRSA2); assay type: functional
# [3] = system: Staphylococcus aureus; test: Minimum inhibitory concentration against growth of patient isolated methicillin-resistant Staphylococcus aureus (MRSA1); assay type: functional
# [4] = system: Escherichia coli; test: Minimum inhibitory concentration against growth of […] Escherichia coli […]; assay type: functional
# [5] = system: Enterococcus faecalis; test: Minimum inhibitory concentration against growth of patient isolated vancomycin-resistant Enterococcus faecalis ATCC 51299 (VRE2); assay type: functional
# [6] = system: Enterococcus faecalis; test: Minimum inhibitory concentration against growth of patient isolated vancomycin-resistant Enterococcus faecalis ATCC 51299 (VRE2); no inhibition; assay type: functional, organism-based
# [7] = system: Staphylococcus aureus; test: Minimum inhibitory concentration against growth of patient isolated methicillin-resistant Staphylococcus aureus (MRSA2); no inhibition; assay type: functional, organism-based
SMILES,MIC [1] [µg/mL],MIC [2] [µg/mL],MIC [3] [µg/mL],MIC [4] [µg/mL],MIC [5] [µg/mL],MIC [6],MIC [7]
CC(C)=CCC12CCN(C)C1Nc1ccccc12 (configuration not stated),20,40,40,160,40,–,–
CC(C)=CCN1c2ccccc2C2(CC=C(C)C)CCN(C=O)C12 (configuration not stated),–,–,–,–,–,inactive,inactive
